The nature of series [1]: Mouse PK studies, single i.v. and p.o. dose. The series is classed as in vivo, CD1 mice. Particulars: male, CD1, mouse, plasma; for half-life: terminal half-life.
Series [2] deals with MIA PaCa-2 cell. Briefly: Cell proliferation assay (Celltiter-Glo), MIA PaCa-2. The settings on record: Homo sapiens, MIA PaCa-2, 72 h, 3 days. The class given is cell-based. The protocol:
(§1) Cell Proliferation Assay:
(§2) NCI-H358 cell and MIA PaCa-2 cell was cultured in RPMI-1640 supplemented with 10% FBS in humidified incubator at 37° C., 5% CO2. To asses the effect of Compounds of the Disclosure on cell proliferation, exponentially growing cells (5000 cells/well) were plated onto 96-well plates. After cell seeding, a representative Compounds of the Disclosure were added to the cell media (in concentrations ranging from 0 to 10 μM, 3/dilution series). After 3 days, 30 μL Celltiter-Glo reagent was added, and the luminescent signal was determined according to supplier's instruction. The dose response curves and IC50 values were generated using Prism.

Series [3] deals with NCI-H358 cell. The series can be described thus: Cell proliferation assay (Celltiter-Glo), NCI-H358. The settings on record: Homo sapiens, NCI-H358, 72 h, 3 days. The class given is cell-based. The protocol:
as §1, §2

We go through nine compounds from US11312724B2 (ASCENTAGE PHARMA (SUZHOU) CO., LTD., priority 2021, dated 2022).

By AUC(0-inf) is commonly meant the area under the concentration-time curve extrapolated to infinity. As usually defined, the AUC(0-t) is exposure summed from dosing to a finite time, without extrapolation to infinity. The MRT inf is the average time that molecules of a dose stay in the body. One may read the half-life as the time needed for the level to fall by half in the phase considered. Low values mean fast loss, high ones slow loss. The Cmax is the peak of the concentration-time curve. By bioavailability is commonly meant dose-corrected exposure relative to a reference, in per cent. The term pIC50 denotes the IC50 on a negative log10 scale, so that one unit is a factor of ten. A high value points to a small IC50.

Structures are written as SMILES. pIC50: −log10 of the molar value.

With `C=CC(=O)N1CCN(c2nc(OC[C@@H]3CCCN3C)nc3c2CC[C@@]2(CCc4c(Cl)cccc42)C3)C[C@@H]1CC#N` [Cpd. No. 53, 2-((S)-1-acryloyl-4-((R)-4-chloro-2′-(((S)-1-methylpyrrolidin-2-yl)methoxy)-2,3,5′,8′-tetrahydro-6′H-spiro[indene-1,7′-quinazolin]-4′-yl)piperazin-2-yl)acetonitrile], in series [1] (2 mg/kg, IV 2 mpk), the AUC(0-inf) came out at 1200 ng·h/mL, the AUC(0-t) was 1200 ng·h/mL, the MRT inf stood at 0.824 h and the half-life was 1.45 h. For the same compound, the Vd in series [1] (2 mg/kg, IV 2 mpk, read-out: Vss) worked out at 1.37 L/kg. In series [1] (10 mg/kg, PO 10 mpk), this compound came in with an AUC(0-inf) of 2900 ng·h/mL, an AUC(0-t) of 2650 ng·h/mL, a Cmax of 856 ng/mL and an MRT inf of 3.26 h. In series [1] (10 mg/kg, PO 10 mpk), this compound had a half-life of 2.39 h. The compound further returned a bioavailability in series [1] (10 mg/kg, PO 10 mpk vs IV 2 mpk) of 48.2%. Also, in series [2], the negative logarithm of the IC50 (pIC50) was 8.96. This compound also had a pIC50 in series [3] of 8.60.
For the compound `C=C(F)C(=O)N1CCN(c2nc(OC[C@@]34CCCN3C[C@H](F)C4)nc3c2CC[C@@]2(CCc4c(Cl)cccc42)C3)C[C@@H]1CC#N` [Cpd. No. 50, 2-((S)-4-((R)-4-chloro-2′-(((2R,7aS)-2-fluorotetrahydro-1H-pyrrolizin-7a(5H)-yl)methoxy)-2,3,5′,8′-tetrahydro-6′H-spiro[indene-1,7′-quinazolin]-4′-yl)-1-(2-fluoroacryloyl)piperazin-2-yl)acetonitrile], the pIC50 was 8.54 in series [2] and 8.92 in series [3].
`C=CC(=O)N1CCN(c2nc(OC[C@@H]3CCCN3C)nc3c2CCC2(CCc4ccccc42)C3)CC1` (stereo partly drawn) [Cpd. No. 9, 1-(4-(2′-(((S)-1-methylpyrrolidin-2-yl)methoxy)-2,3,5′,8′-tetrahydro-6′H-spiro[indene-1,7′-quinazolin]-4′-yl)piperazin-1-yl)prop-2-en-1-one]: the pIC50 in series [2] is 5.76; in series [3], 5.49.
Turning to `C=C(F)C(=O)N1CCN(c2nc(OCC34CCCN3CCC4)nc3c2CCC2(CCc4c(C(F)F)cccc42)C3)C[C@@H]1CC#N` (stereo partly drawn) [Cpd. No. 49, 2-((2S)-4-(4-(difluoromethyl)-2′-((tetrahydro-1H-pyrrolizin-7a(5H)-yl)methoxy)-2,3,5′,8′-tetrahydro-6′H-spiro[indene-1,7′-quinazolin]-4′-yl)-1-(2-fluoroacryloyl)piperazin-2-yl)acetonitrile], the pIC50 in series [2] was 7.22; in series [3], 7.21.
With `COC/C=C/C(=O)N1CCN(c2nc(OC[C@@H]3CCCN3C)nc3c2CCC2(CCc4ccccc42)C3)C[C@@H]1CC#N` (stereo partly drawn) [Cpd. No. 40, 2-((2S)-1-((E)-4-methoxybut-2-enoyl)-4-(2′-(((S)-1-methylpyrrolidin-2-yl)methoxy)-2,3,5′,8′-tetrahydro-6′H-spiro[indene-1,7′-quinazolin]-4′-yl)piperazin-2-yl)acetonitrile], the values for the pIC50 in series [2] and in series [3] were 6.36 and 6.25, respectively.
Turning to `C/C=C/C(=O)N1CCN(c2nc(OC[C@@H]3CCCN3C)nc3c2CCC2(CCCc4ccccc42)C3)C[C@@H]1CC#N` (stereo partly drawn) [Cpd. No. 14, 2-((2S)-1-((E)-but-2-enoyl)-4-(2′-(((S)-1-methylpyrrolidin-2-yl)methoxy)-3,4,5′,8′-tetrahydro-2H,6′H-spiro[naphthalene-1,7′-quinazolin]-4′-yl)piperazin-2-yl)acetonitrile], the pIC50 in series [2] and in series [3] was 5.78 each time.
For the compound `C=C(F)C(=O)N1CCN(c2nc(OC[C@@H]3CCCN3C)nc3c2CCC2(CCCc4ccccc42)C3)C[C@@H]1CC#N` (stereo partly drawn) [Cpd. No. 13, 2-((2S)-1-(2-fluoroacryloyl)-4-(2′-(((S)-1-methylpyrrolidin-2-yl)methoxy)-3,4,5′,8′-tetrahydro-2H,6′H-spiro[naphthalene-1,7′-quinazolin]-4′-yl)piperazin-2-yl)acetonitrile], the figures for the pIC50 in series [2] and in series [3] were 6.66 and 6.54, respectively.
Take `CN1CCC[C@H]1COc1nc2c(c(N3CCN(C(=O)/C=C/CN4CC(F)C4)[C@@H](CC#N)C3)n1)CCC1(CCc3ccccc31)C2` (stereo partly drawn) [Cpd. No. 41, 2-((2S)-1-((E)-4-(3-fluoroazetidin-1-yl)but-2-enoyl)-4-(2′-(((S)-1-methylpyrrolidin-2-yl)methoxy)-2,3,5′,8′-tetrahydro-6′H-spiro[indene-1,7′-quinazolin]-4′-yl)piperazin-2-yl)acetonitrile]: the pIC50 in series [2] was 7.04; in series [3], 6.49.
Taken in the same sequence, the figures for `C=CC(=O)N1CCN(c2nc(OC[C@@H]3CCCN3C)nc3c2CCC2(CCc4ccccc42)C3)[C@@H](C)C1` (stereo partly drawn) [Cpd. No. 10, 1-((3S)-3-methyl-4-(2′-(((S)-1-methylpyrrolidin-2-yl)methoxy)-2,3,5′,8′-tetrahydro-6′H-spiro[indene-1,7′-quinazolin]-4′-yl)piperazin-1-yl)prop-2-en-1-one] were 5.93 and 5.65.
